The source made the active and inactive calls. The rule behind the calls is not given here.
What was measured:
[1] = Inhibition of IFN-gamma induced PD-L1 protein expression in human BXPC-3 cells incubated for 48 hrs by high-throughput flow cytometric analysis; conditions: BXPC-3, 48 h
[2] = Inhibition of IFN-gamma induced PD-L1 protein expression in human A549 cells incubated for 48 hrs by high-throughput flow cytometric analysis; conditions: A549, 48 h
[3] = Inhibition of IFN-gamma induced PD-L1 protein expression in human SK-OV-3 cells incubated for 48 hrs by high-throughput flow cytometric analysis; conditions: SK-OV-3, 48 h
BXPC-3 [4] = assay: Reversal of IFN-gamma induced cell death in human BXPC-3 cells at 2.5 to 10 uM incubated for 48 hrs by microscopic analysis; type: functional, cell-based; conditions: dose 2.5-10 µM
BXPC-3 [5] = assay: Effect on cell death in human BXPC-3 cells at 2.5 to 10 uM incubated for 48 hrs by microscopic analysis; type: toxicity, cell-based; conditions: bxpc-3, 48 h, dose 2.5-10 µM
BXPC-3 [6] = assay: Effect on cell viability in human BXPC-3 cells at 2.5 to 10 uM incubated for 48 hrs by CellTiter-Glo assay; type: toxicity, cell-based; conditions: bxpc-3, 48 h, dose 2.5-10 µM
[7] = target: Transcription factor p65 (Homo sapiens) (UniProt Q04206); assay: Inhibition of p65 phosphorylation in human BXPC-3 cells at 2.5 to 10 uM preincubated with compound for 1 hrs followed by IFN-gamma stimulation for 1 hrs by Western blot analysis; type: cell-based; conditions: dose 2.5-10 µM, time 2.0 hrs
[8] = target: Transcription factor p65 (Homo sapiens) (UniProt Q04206); assay: Inhibition of p65 phosphorylation in human A549 cells at 2.5 to 10 uM preincubated with compound for 1 hrs followed by IFN-gamma stimulation for 1 hrs by Western blot analysis; type: cell-based; conditions: dose 2.5-10 µM, time 2.0 hrs
[9] = target: Transcription factor p65 (Homo sapiens) (UniProt Q04206); assay: Inhibition of p65 phosphorylation in human SK-OV-3 cells at 2.5 to 10 uM preincubated with compound for 1 hrs followed by IFN-gamma stimulation for 1 hrs by Western blot analysis; type: cell-based; conditions: dose 2.5-10 µM, time 2.0 hrs
[10] = target: T1, Tyrosine-protein kinase JAK2 (Homo sapiens, UniProt O60674); assay: Inhibition of N-terminal His-tagged human JAK2 (826 to 1132 residues) expressed in Sf21 cells incubated for 30 mins in presence of ATP by LANCE Ultra assay
[11] = target: T2, Tyrosine-protein kinase JAK3 (Homo sapiens, UniProt P52333); assay: Inhibition of N-terminal His-tagged human JAK3 (795 to 1124 residues) expressed in Sf21 cells incubated for 30 mins in presence of ATP by LANCE Ultra assay
T2 sequence (P52333 whole entry): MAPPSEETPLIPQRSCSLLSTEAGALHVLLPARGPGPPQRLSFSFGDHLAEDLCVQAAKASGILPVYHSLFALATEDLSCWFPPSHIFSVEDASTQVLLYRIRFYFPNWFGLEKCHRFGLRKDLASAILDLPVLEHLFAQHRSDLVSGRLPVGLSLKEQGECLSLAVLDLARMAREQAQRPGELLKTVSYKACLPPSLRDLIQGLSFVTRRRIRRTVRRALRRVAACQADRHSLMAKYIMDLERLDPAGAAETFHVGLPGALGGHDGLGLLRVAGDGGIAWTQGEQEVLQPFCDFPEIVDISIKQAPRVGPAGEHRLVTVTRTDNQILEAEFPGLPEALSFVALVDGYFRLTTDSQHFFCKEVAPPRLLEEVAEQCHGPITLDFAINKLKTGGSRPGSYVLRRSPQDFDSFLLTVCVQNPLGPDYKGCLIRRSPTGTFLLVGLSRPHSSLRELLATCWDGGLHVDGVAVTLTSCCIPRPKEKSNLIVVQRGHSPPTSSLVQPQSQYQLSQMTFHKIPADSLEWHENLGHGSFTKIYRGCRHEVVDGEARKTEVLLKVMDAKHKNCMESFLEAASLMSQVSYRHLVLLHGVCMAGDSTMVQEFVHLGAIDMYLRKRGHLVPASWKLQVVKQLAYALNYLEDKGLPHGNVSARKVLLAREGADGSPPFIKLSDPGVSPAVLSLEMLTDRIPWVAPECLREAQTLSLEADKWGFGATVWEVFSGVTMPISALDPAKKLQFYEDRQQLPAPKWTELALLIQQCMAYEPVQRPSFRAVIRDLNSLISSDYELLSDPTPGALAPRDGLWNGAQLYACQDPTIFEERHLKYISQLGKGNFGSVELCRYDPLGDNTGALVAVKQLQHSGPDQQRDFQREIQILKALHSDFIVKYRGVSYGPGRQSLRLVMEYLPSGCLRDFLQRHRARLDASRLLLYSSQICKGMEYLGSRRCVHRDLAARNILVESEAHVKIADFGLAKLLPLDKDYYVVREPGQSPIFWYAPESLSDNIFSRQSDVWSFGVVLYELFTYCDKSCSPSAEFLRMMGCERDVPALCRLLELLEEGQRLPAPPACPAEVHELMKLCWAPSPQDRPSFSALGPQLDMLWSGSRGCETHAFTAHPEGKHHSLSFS

[12] = target: Non-receptor tyrosine-protein kinase TYK2 (Homo sapiens, UniProt P29597); assay: Inhibition of N-terminal GST-tagged human TYK2 (871to 1187 residues) expressed in Sf21 cells incubated for 30 mins in presence of ATP by LANCE Ultra assay
B16-OVA melanoma cell [13] = assay: Sensitization of mouse B16-OVA melanoma cells to OT-1 T cells assessed as increase in antigen specific T-cell killing at 2.5 to 10 uM preincubated with compound in presence of mouse IFN-gamma for 24 hrs followed by OT-1 T cell addition for 24 hrs by crystal violet staining based analysis; type: functional; conditions: dose 2.5-10 µM, time 48.0 hrs
B16-OVA melanoma cell [14] = assay: Sensitization of mouse B16-OVA melanoma cells to OT-1 T cells assessed as reduction in cell viability preincubated with compound in presence of mouse IFN-gamma for 24 hrs followed by OT-1 T cell addition for 24 hrs by CellTiter-Glo assay; type: functional, cell-based; conditions: dose 2.5-10 µM
[15] = target: T1, Tyrosine-protein kinase JAK2; conditions: BXPC-3, Lysate, dose 10.0 µM, time 1.0 hrs

Chain of Transcription factor p65 (Homo sapiens) (Q04206 whole entry, the tested form may be a part): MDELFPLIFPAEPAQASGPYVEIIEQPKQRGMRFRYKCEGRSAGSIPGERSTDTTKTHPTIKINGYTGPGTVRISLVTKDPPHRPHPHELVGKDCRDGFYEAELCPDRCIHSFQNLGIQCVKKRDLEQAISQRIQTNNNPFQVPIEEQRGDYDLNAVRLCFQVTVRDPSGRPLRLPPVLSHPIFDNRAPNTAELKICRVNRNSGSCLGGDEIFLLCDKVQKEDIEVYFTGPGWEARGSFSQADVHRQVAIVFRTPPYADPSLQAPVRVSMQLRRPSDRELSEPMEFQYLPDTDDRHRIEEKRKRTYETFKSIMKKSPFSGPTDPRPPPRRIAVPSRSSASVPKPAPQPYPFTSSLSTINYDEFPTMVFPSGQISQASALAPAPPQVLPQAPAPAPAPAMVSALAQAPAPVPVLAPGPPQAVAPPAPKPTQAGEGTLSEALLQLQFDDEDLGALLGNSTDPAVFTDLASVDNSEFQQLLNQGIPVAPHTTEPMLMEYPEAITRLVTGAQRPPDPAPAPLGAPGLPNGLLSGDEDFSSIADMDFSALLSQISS
T1 sequence (O60674 whole entry, the tested form may be a part): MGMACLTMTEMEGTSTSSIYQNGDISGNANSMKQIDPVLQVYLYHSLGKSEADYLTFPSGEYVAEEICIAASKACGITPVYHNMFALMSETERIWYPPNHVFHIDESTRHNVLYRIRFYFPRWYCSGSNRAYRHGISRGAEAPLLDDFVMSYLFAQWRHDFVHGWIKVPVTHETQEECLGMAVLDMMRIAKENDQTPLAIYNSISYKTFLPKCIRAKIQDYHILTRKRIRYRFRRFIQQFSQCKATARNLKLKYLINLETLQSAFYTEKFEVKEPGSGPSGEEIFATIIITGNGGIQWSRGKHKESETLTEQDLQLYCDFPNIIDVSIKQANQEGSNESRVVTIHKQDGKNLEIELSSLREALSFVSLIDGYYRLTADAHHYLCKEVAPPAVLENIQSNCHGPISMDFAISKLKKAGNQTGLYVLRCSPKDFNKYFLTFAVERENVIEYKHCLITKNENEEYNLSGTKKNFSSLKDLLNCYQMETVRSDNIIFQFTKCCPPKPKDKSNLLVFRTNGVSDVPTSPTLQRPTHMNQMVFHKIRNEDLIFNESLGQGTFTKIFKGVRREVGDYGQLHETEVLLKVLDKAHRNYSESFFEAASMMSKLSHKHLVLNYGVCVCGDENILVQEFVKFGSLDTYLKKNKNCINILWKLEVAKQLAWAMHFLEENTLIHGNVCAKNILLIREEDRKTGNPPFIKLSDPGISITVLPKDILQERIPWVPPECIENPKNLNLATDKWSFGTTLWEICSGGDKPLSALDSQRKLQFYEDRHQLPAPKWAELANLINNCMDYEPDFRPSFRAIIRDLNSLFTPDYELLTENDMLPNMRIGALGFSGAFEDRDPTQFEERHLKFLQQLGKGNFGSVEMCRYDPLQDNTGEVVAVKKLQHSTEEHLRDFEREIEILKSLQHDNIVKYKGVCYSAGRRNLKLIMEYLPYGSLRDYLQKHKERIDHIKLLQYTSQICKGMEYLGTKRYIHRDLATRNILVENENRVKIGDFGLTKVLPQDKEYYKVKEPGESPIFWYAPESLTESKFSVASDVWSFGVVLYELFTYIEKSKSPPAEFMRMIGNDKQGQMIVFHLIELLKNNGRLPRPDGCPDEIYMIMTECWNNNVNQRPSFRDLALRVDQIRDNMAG
Chain of Non-receptor tyrosine-protein kinase TYK2 (P29597 whole entry, the tested form may be a part): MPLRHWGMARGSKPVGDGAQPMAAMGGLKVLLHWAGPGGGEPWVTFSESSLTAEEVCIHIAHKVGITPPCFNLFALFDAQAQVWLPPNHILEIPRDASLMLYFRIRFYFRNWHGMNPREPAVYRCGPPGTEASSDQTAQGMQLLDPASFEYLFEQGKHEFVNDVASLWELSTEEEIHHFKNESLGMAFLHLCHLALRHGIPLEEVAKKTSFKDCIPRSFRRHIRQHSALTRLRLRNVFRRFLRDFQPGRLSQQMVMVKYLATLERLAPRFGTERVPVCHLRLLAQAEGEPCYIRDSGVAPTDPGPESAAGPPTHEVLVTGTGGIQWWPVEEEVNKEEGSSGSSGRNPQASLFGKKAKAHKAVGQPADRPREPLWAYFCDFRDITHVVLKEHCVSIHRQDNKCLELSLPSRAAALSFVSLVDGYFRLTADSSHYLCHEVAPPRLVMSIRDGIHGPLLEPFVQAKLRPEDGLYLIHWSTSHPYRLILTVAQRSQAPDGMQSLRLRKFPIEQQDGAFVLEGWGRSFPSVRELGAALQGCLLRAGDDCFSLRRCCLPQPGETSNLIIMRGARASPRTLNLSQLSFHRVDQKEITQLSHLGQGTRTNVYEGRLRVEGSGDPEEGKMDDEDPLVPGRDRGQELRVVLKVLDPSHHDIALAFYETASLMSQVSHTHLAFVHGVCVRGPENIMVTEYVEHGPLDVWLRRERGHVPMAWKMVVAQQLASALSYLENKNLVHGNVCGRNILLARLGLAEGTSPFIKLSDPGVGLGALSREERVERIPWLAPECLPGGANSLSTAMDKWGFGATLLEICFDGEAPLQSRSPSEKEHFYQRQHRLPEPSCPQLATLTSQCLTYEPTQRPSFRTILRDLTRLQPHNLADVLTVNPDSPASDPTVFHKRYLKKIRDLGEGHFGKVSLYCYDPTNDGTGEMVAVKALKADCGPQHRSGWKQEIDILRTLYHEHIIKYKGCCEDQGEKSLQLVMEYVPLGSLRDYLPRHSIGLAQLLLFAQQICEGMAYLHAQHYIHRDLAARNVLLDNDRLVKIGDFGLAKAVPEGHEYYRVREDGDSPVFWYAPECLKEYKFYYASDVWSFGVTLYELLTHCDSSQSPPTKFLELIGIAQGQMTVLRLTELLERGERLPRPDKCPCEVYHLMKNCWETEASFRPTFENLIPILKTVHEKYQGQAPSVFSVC

Work on `C/C(=C\C[C@@H](C)[C@H]1CC[C@H]2[C@@H]3C[C@H](OS(=O)(=O)[O-])[C@H]4C[C@H](OS(=O)(=O)[O-])[C@@H](OS(=O)(=O)[O-])C[C@]4(C)[C@H]3CC[C@]12C)C(C)(C)C(C)C.[Na+].[Na+].[Na+]` yielded an IC50 [1] of 4100 nM, an IC50 [2] of 2800 nM and an IC50 [3] of 6500 nM. For the same compound, the Activity (BXPC-3 [4]) was “Active”, the Activity (BXPC-3 [5]) was “Non-Toxic” and the Activity (BXPC-3 [6]) was “Non-Toxic”. For the same compound, the inhibition [7] was “inactive”, the inhibition [8] was “inactive” and the inhibition [9] was “inactive”. For the same compound, the IC50 [10] was 1200 nM, the IC50 [11] was 520 nM and the IC50 [12] was 530 nM. For the same compound, the Activity (B16-OVA melanoma cell [13]) was “Active”, the Activity (B16-OVA melanoma cell [14]) was “Dose-Dependent Effect” and the ΔTm [15] was 11 °C.

Reference: ChEMBL document CHEMBL5385928, “Sokotrasterol Sulfate Suppresses IFN-γ-Induced PD-L1 Expression by Inhibiting JAK Activity” (J Nat Prod, 2024)
